Experimental data from patent US6211181A, “1-Benzenesulfonyl pyrrolidine derivatives as bradykinin receptor antagonists” (Fournier Industrie et Sante, priority 1995, dated 2001).
Counter-ions that a name gives are not always drawn.

Biological target: T1, guinea-pig B2 receptor (Cavia porcellus, UniProt O70526)
T1 construct: Ileum segments are isolated from male guinea-pigs of the Dunkin-Hartley strain; tissue Iffa Credo, l'Arbresle, France (supplier of the animals); host or cells: ileum membranes of male Dunkin-Hartley guinea pigs
T1 sequence (O70526 1-372): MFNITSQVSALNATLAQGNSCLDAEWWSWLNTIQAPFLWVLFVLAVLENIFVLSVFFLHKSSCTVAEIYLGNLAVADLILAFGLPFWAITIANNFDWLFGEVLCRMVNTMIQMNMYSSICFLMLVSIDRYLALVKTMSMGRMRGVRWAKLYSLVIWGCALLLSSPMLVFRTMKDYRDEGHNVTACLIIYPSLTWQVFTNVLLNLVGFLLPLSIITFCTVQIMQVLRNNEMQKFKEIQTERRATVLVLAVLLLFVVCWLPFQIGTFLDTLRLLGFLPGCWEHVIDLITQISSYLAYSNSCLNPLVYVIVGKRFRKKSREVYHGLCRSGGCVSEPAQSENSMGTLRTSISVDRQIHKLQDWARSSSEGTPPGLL
Test: [3H]-bradykinin binding to guinea-pig ileum membranes
Conditions: test compound at 10^-6 M, [3H]-bradykinin 120 pM, 90 min at 20° C., read-out: ACTIVITY % (percentage inhibition of the binding of [3H]-bradykinin)
Experimental: The following pharmacological test is used: Ileum segments are isolated from male guinea-pigs of the Dunkin-Hartley strain (Iffa Credo, l'Arbresle, France) and ground in the following TES buffer: TES 25 mM, 1,10-phenanthroline 1 mM (pH 6.8), bacitracin 140 μg/ml, BSA 1 g/l. The membranes are then isolated by centrifugation (18,000 rpm; 20 min; 4° C.). The binding studies are carried out in the TES buffer using [^3 H]-bradykinin (120 pM) and 50 μg of membrane protein per test (final volume 500 μl) with an equilibrium time of 90 min at 20° C. […] The results obtained from these tests (shown as "activity") are collated in Table I below with reference to the Examples given in the description.

Compound | inhibition at 1 µM [%]
Cc1cc(C)c2cccc(OCc3c(Cl)ccc(S(=O)(=O)N4C[C@H](O)C[C@H]4C(=O)N4CCN(C(=N)N)CC4)c3Cl)c2n1 [Example 15, 1-[[3-[(2,4-Dimethylquinolin-8-yl)oxymethyl]-2,4-dichlorophenyl]sulfonyl]-2-(S)-[[4-(aminoiminomethyl)piperazin-1-yl]carbonyl]-4-(R)-hydroxypyrrolidine bistrifluoroacetate] | 100
Cc1ccc2cccc(OCc3c(Cl)ccc(S(=O)(=O)N4CCC[C@H]4C(=O)N4CCN(C(=NC(C)C)NC(C)C)CC4)c3Cl)c2n1 [Example 27, 1-[[3-[(2-Methylquinolin-8-yl)oxymethyl]-2,4-dichlorophenyl]sulfonyl]-2-(S)-[[4-[(1-methylethylamino)(1-methylethylimino)methyl]piperazin-1-yl]-carbonyl]pyrrolidine dihydrochloride] | 100
Cc1ccc2cccc(OCc3c(Cl)ccc(S(=O)(=O)N4CCC[C@H]4C(=O)NC4CCNCC4)c3Cl)c2n1 [Example 8, 1-[[3-[(2-Methylquinolin-8-yl)oxymethyl]-2,4-dichlorophenyl]sulfonyl]-N-(piperidin-4-yl)-2-(S)-pyrrolidinecarboxamide dihydrochloride] | 100
Cc1cc(C)c2cccc(OCc3c(Cl)ccc(S(=O)(=O)N4CCC[C@H]4C(=O)N4CCNCC4)c3Cl)c2n1 [Example 5, 1-[[3-[(2,4-Dimethylquinolin-8-yl)oxymethyl]-2,4-dichlorophenyl]sulfonyl]-2-(S)-[(piperazin-1-yl)carbonyl]pyrrolidine bistrifluoroacetate] | 100
Cc1cc(C)c2cccc(OCc3c(Cl)ccc(S(=O)(=O)N4CCC[C@H]4C(=O)NCCNC(=N)N)c3Cl)c2n1 [Example 19, 1-[[3-[(2,4-Dimethylquinolin-8yl)oxymethyl]-2,4-dichlorophenyl]sulfonyl]-N-[2-[(aminoiminomethyl)amino]ethyl]-2-(S)-pyrrolidinecarboxamide dihydrochloride] | 97
Cc1cc(C)c2cccc(OCc3c(Cl)ccc(S(=O)(=O)N4CCC[C@H]4C(=O)N4CCN(C(=N)N)CC4)c3Cl)c2n1 [Example 14, 1-[[3-[(2,4-Dimethylquinolin-8-yl)oxymethyl]-2,4-dichlorophenyl]sulfonyl]-2-(S)-[[4-(aminoiminomethyl)piperazin-1-yl]carbonyl]pyrrolidine bistrifluoroacetate] | 98
Cc1ccc2cccc(OCc3c(Cl)ccc(S(=O)(=O)N4CCC[C@H]4C(=O)NCCCN)c3Cl)c2n1 [Example 9, 1-[[3-[(2-Methylquinolin-8-yl)oxymethyl]-2,4-dichlorophenyl]sulfonyl]-N-(3-aminopropyl)-2-(S)-pyrrolidinecarboxamide dihydrochloride] | 100
Cc1cc(C)c2cccc(OCc3c(Cl)ccc(S(=O)(=O)N4CCC[C@H]4C(=O)NCCCNC(=N)N)c3Cl)c2n1 [Example 20, 1-[[3-[(2,4-Dimethylquinolin-8-yl)oxymethyl]-2,4-dichlorophenyl]sulfonyl]-N-[3-[(aminoiminomethyl)amino]propyl]-2-(S)-pyrrolidinecarboxamide dihydrochloride] | 98
Cc1ccc2cccc(OCc3c(Cl)ccc(S(=O)(=O)N4CCC[C@H]4C(=O)NCC4CCNCC4)c3Cl)c2n1 [Example 10, 1-[[3-[(2-Methylquinolin-8-yl)oxymethyl]-2,4-dichlorophenyl]sulfonyl]-N-[(piperidin-4-yl)methyl]-2-(S)-pyrrolidinecarboxamide dihydrochloride] | 100

Now from value to compound:

inhibition at 1 µM [%] | Compound
100 | Cc1ccc2cccc(OCc3c(Cl)ccc(S(=O)(=O)N4CCC[C@H]4C(=O)N4CCNCC4)c3Cl)c2n1 [Example 2, 1-[[3-[(2-Methylquinolin-8-yl)oxymethyl]-2,4-dichlorophenyl]sulfonyl]-2-(S)-[(piperazin-1-yl)carbonyl]pyrrolidine]
100 | Cc1ccc2cccc(OCc3c(Cl)ccc(S(=O)(=O)N4CCC[C@H]4C(=O)NC4CCN(C(=N)N)CC4)c3Cl)c2n1 [Example 23, 1-[[3-[(2-Methylquinolin-8-yl)oxymethyl]-2,4-dichlorophenyl]sulfonyl]-N-[1-(aminoiminomethyl)piperidin-4-yl]-2-(S)-pyrrolidinecarboxamide dihydrochloride]
98 | Cc1ccc2cccc(OCc3c(Cl)ccc(S(=O)(=O)N4CCC[C@H]4C(=O)NCC4CCN(C(=N)N)CC4)c3Cl)c2n1 [Example 22, 1-[[3-[(2-Methylquinolin-8-yl)oxymethyl]-2,4-dichlorophenyl]sulfonyl]-N-[[1-(aminoiminomethyl)piperidin-4-yl]methyl]-2-(S)-pyrrolidinecarboxamide dihydrochloride]
98 | Cc1ccc2cccc(OCc3c(Cl)ccc(S(=O)(=O)N4CCC[C@H]4C(=O)N4CCN(C(=N)N)CC4)c3Cl)c2n1 [Example 24, 1-[[3-[(2-Methylquinolin-8-yl)oxymethyl]-2,4-dichlorophenyl]sulfonyl]-2-(S)-[[4-(aminoiminomethyl)piperazin-1-yl]carbonyl]pyrrolidine dihydrochloride]
100 | Cc1ccc2cccc(OCc3c(Cl)ccc(S(=O)(=O)N4CCC[C@H]4C(=O)NCCN)c3Cl)c2n1 [Example 3, 1-[[3-[(2-Methylquinolin-8-yl)oxymethyl]-2,4-dichlorophenyl]sulfonyl]-N-(2-aminoethyl)-2-(S)-pyrrolidinecarboxamide]
100 | Cc1ccc2cccc(OCc3c(Cl)ccc(S(=O)(=O)N4CCC[C@H]4C(=O)NCCNC(=N)N)c3Cl)c2n1 [Example 16, 1-[[3-[(2-Methylquinolin-8-yl)oxymethyl]-2,4-dichlorophenyl]sulfonyl]-N-[2-[(aminoiminomethyl)amino]ethyl]-2-(S)-pyrrolidinecarboxamide bistrifluoroacetate]
100 | Cc1ccc2cccc(OCc3c(Cl)ccc(S(=O)(=O)N4CCC[C@H]4C(=O)N4CC(C)N(C(=N)N)C(C)C4)c3Cl)c2n1 (stereo partly drawn) [Example 25, 1-[[3-[(2-Methylquinolin-8yl)oxymethyl]-2,4-dichlorophenyl]sulfonyl]-2-(S)-[[4-(aminoiminomethyl)-3,5-dimethylpiperazin-1-yl]carbonyl]pyrrolidine dihydrochloride]
